The conditions of data set [1]: administered into the parabrachial nucleus in the brainstem; cited from earlier work.
Data set [2] in a line: Percentage weight change in antipsychotic-treated schizophrenia patients. Type of data set: in vivo, human. As to conditions: Sample B (N = 56), SCZ patients of European ancestry receiving clozapine; study duration 6.00 ± 0.00 weeks; mean ± SD. The protocol: In total, 160 participants with psychotic symptoms were included in this study. Diagnosis for schizophrenia (SCZ) was assessed by the Structured Diagnostic Interviews for DSM-IIIR and/or DSM-IV diagnoses (SCID-I,^31,32), except for sample A where diagnoses were based on an interview assessing both DSM and ICD diagnoses. The inclusion criteria for adult probands were DSM-IIIR/IV diagnosis of SCZ or schizoaffective disorder, with psychotic symptoms. A written informed consent was obtained after the complete study description was given to each participant, and the study has been approved by the Research Ethics Board.
Sample A (N=93) was collected at the Charité University Medicine, Berlin, Germany. […] Clozapine serum levels were monitored during the course of the treatment to ascertain compliance. Clinical response was assessed after 6 weeks using the Brief Psychiatric Rating Scale (BPRS)^35. […]
Statistical analyses of demographic variables, which included sex, age at recruitment, and duration of treatment, were performed across samples using Fisher's Exact tests, analysis of variance, or Kruskal-Wallis tests (Table 1). […] We also analyzed the ‘percent weight change’ variable in a meta-analytic approach to take into account heterogeneity across the three patient sample groups using STATA version 8 (e.g.,^48). […] Linkage disequilibrium and r^2 between marker pairs as determined by Haploview 4.1^49. […]

For data set [3] the following is noted: patients treated with second-generation antipsychotics; cited from earlier work.

As for `Cn1ncnc1COc1nn2c(-c3cc(F)ccc3F)nnc2cc1C(C)(C)C` [L-838417], the food intake entry in data set [1] was “increased food intake”.
`CN1CCN(C2=Nc3cc(Cl)ccc3Nc3ccccc32)CC1` [clozapine] yielded a Percentage weight change in data set [2] of 3.88 ± 5.770.
In the case of `Cc1cc2c(s1)Nc1ccccc1N=C2N1CCN(C)CC1` [olanzapine], in data set [3], the “treated patients experiencing significant weight gain” value is “about 30%”.
As to `Cc1ncc2n1-c1ccc(Cl)cc1C(c1ccccc1F)=NC2` [midazolam], in data set [1], the food intake result is given as “increased food intake”.
